According to patent US20240182513A1, “SEPARATION OF METAL IONS FROM A SAMPLE USING GLYCOLIPIDS” (ARIZONA BOARD OF REGENTS ON BEHALF OF THE UNIVERSITY OF …, priority 2021, published 2024):

Assay: Ion flotation of uranium from Monument Valley groundwater with rhamnolipid collectors
Description: Groundwater Collection and Analysis: The Monument Valley site is in Cane Valley, AZ, which is in northeastern Arizona. Groundwater was collected from monitoring well 662, which is down gradient of the source zone within the boundaries of the uranium groundwater plume. Samples were collected using dedicated bladder pumps and a QED Micropurge Controller. Groundwater was collected into a 50 L LDPE carboy (Thermo Scientific Nalgene) after the groundwater's pH and dissolved oxygen levels from the pump stabilized. The solution was stored as received, on the lab bench at ambient temperature until use.
For cation and anion analysis, groundwater was filtered ([…]) then diluted with 2% trace metals grade nitric acid (Fisher Scientific, Waltham, MA) in metal-free polypropylene 15 mL centrifuge tubes (VWR, Radnor, PA). Cations were analyzed using an Elan DRC-II inductively coupled plasma mass spectrometer (ICP-MS). Anions (F^−1, Cl^−1, Br^−1, NO2^−1, NO3^−1, […], and SO4^−2) were analyzed by using a Thermo Scientific Dionex ICS-6000 high-performance ion chromatography system. Data generated in this geochemical analysis were used to model uranium speciation using Visual MINTEQ 3.1. Only major solution constituents—those greater than 10 μg L^−1 for metals or 5 μmol L^−1 for anions—were included in the experiment, and carbonates were excluded because they are stripped from solution when nitrogen is sparged in the flotation process.
Chemicals: Both biosynthetic and synthetic monorhamnolipid collectors were tested for flotation efficiency. Biosynthetic monorhamnolipid tail lengths ‘m’ and ‘n’ range from 4 to 12 due to natural congener variation. Synthetic monorhamnolipids (Rha-C10-C10, Rha-C12-C12, or Rha-C14-C14) were synthesized with equal length tails where ‘m’=‘n’=6-14. The production and purification of biosynthetic monorhamnolipids (bio-mRL) from Pseudomonas aeruginosa ATCC 9027 has been previously described by Hogan et al., J. Hazard. Mater. 2017, 340, pp. 171-178. This organism exclusively produces monorhamnolipids—rhamnolipids with a single rhamnose sugar in the hydrophilic moiety of the molecule—as a congener mixture with varying hydrophobic tail lengths, in which the rhamnosyl-β-hydroxydecanoyl-β-hydroxydecanoate (C10-C10) dominates at 75-85 wt %. A molecular weight of 504 g mol^−1 (based on the C10-C10 structure) was used to estimate the bio-mRL concentration. Synthetic monorhamnolipids with decyl (Rha-C10-C10), dodecyl (Rha-C12-C12), and tetradecyl (Rha-C14-C14) hydrophobic moieties were prepared for comparative experiment. The molecular weights of the synthetic monorhamnolipids are 504.7, 560.8, and 616.9, respectively. All solutions were made using nanopure water (≥18 MΩ-cm). pH was adjusted with HNO3 and NaOH. […]

CCCCCCCCCC(CC(=O)O)OC(=O)CC(CCCCCCCCC)OC1O[C@@H](C)[C@H](O)[C@@H](O)[C@H]1O (stereo partly drawn) [Rha C12C12, rhamnosyl-β-hydroxydodecanoyl-62-hydroxydodecanoate]
uranium removal (native pH 8): did not collect metals | uranium removal percentage (pH 6.5): 6.6% | uranium removal (pH 7): No significant amount of uranium was removed
